Consider 2 molecules from article PMC9695356, “Development and Validation of an LC-MS/MS Method for Simultaneous Determination of Short Peptide-Based Drugs in Human Blood Plasma” (Molecules, 2022).

A short description of series [1]: LC-MS/MS quantitation of GnRH analogs in blood plasma of prostate cancer patients (therapeutic monitoring). The settings on record: patients on goserelin therapy; conclusion from the obtained data.
Procedure: (§1) A 1000 μL volume of blank plasma was placed in a 2 mL Eppendorf tube. Then, 10 μL of internal standard solution (50 μg/mL) was added to the tube, and the mixture was vortexed. An amount of 100 μL of the resulting sample was then transferred to another centrifuge tube, and 200 μL of methanol/deionized water/formic acid (60:40:0.08) mixture was added, followed by 500 μL of methanol. The sample was then centrifuged at 14,500 rpm for 15 min.
(§2) For the solid-phase extraction (SPE), the SPE cartridge was pre-treated with 1 mL methanol, followed by 1 mL of deionized water. The sample mixture was diluted with 500 μL of deionized water and gently loaded onto an SPE Oasis® HLB 1cc 30 mg cartridge (Waters Corporation, Milford, MA, USA). The SPE cartridge was washed with 1 mL deionized water, followed by 1 mL of methanol/deionized water (60:40) mixture. The sample was then eluted with 1 mL 0.1% formic acid (methanol solution) and evaporated to dryness (for 20 min) at 45 °C under a stream of nitrogen. The dry residue was then reconstituted with 100 μL of methanol/deionized water/formic acid (60:40:0.08) mixture.
(§3) The chromatographic separation was performed on a Jupiter® C18 column (5 μm, 50 × 4.6 mm 300 Å) (Phenomonex, Torrance, CA, USA). The mobile phase consisted of 0.1% v/v formic acid aqueous solution (solvent A) and 0.1% v/v formic acid in acetonitrile (solvent B). The mobile phase composition was changed gradually in a gradient elution (Table 5) with a constant flow rate of 1.2 mL/min. The temperature of the column oven was kept at 30 °C. After the sample preparation procedure, 30 μL of supernatant was injected into the LC-MS/MS system.
(§4) Detection was performed with triple quadruple tandem mass spectrometry in the positive ion mode (5 kW) using the MRM mode. Nitrogen was used as a nebulizer (3 L/h) and drying (20 L/h) gas. The desolvation temperature was set at 200 °C, and the source temperature was 400 °C.
Series [2] is described as follows: clinical. The settings on record: male, human, in vivo, sc.
Procedure: as §1, §2, §3, §4
The conditions of series [3]: native hormone; cited from earlier work. An excerpt: Gonadotropin-releasing hormone (GnRH) is a decapeptide released by hypothalamic neurons, which stimulates GnRH-mediated pituitary secretion of both luteinizing hormone (LH) and follicle-stimulating hormone (FSH). […] Goserelin, buserelin, and triptorelin are GnRH agonists, a relatively new class of drugs. The long-term administration of these agonists results in a significant decrease in estrogen and testosterone blood levels. ...

For the molecule `CC(C)C[C@H](NC(=O)[C@@H](COC(C)(C)C)NC(=O)[C@H](Cc1ccc(O)cc1)NC(=O)[C@H](CO)NC(=O)[C@H](Cc1c[nH]c2ccccc12)NC(=O)[C@H](Cc1cnc[nH]1)NC(=O)[C@@H]1CCC(=O)N1)C(=O)N[C@@H](CCCNC(=N)N)C(=O)N1CCC[C@H]1C(=O)NNC(N)=O` [Goserelin, Goserelin acetate], the “Time at which plasma concentration starts to increase” value in series [1] is “second week”. In series [2] (3.6 mg), this molecule gave a level at 8 day of a 28-day dosing cycle of 0.95 ng/mL and a level at 16 day of a 28-day dosing cycle of 16.2 ng/mL. Moreover, in series [2] (10.8 mg), the level at 10 day of an 84-day dosing cycle was determined as 7.81 ng/mL, the level at 29 day of an 84-day dosing cycle is 13.6 ng/mL and the level at 59 day of an 84-day dosing cycle worked out at 0.55 ng/mL.

Regarding Gonadotropin-releasing hormone [GnRH], the Half-life result in series [3] is “several minutes”.
